Reference: PubChem BioAssay (NCI)
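Dose response: 5 concentrations. Exposure: 48 h. Format: 96-well plates. Endpoint: linear interpolation; highest concentration if not reached. GI50 is the concentration that inhibits growth by half. The concentration for full growth arrest is given as TGI.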

How the values were obtained:
Assay in all cases: NCI tumour cell line growth inhibition, 48 h
DLD-1 colon = system: DLD-1 colon
SNB-78 CNS = system: SNB-78 CNS
SN12K1 renal = system: SN12K1 renal
KM20L2 colon = system: KM20L2 colon
DMS 273 small cell lung = system: DMS 273 small cell lung
M19-MEL melanoma = system: M19-MEL melanoma
P388/ADR leukemia = system: P388/ADR leukemia
P388 leukemia = system: P388 leukemia
XF 498 CNS = system: XF 498 CNS
RXF-631 renal = system: RXF-631 renal
LXFL 529 NSCLC = system: LXFL 529 NSCLC

Row | SMILES | GI50 (DLD-1 colon) | TGI (DLD-1 colon) | GI50 (SNB-78 CNS) | TGI (SNB-78 CNS) | GI50 (SN12K1 renal) | TGI (SN12K1 renal) | GI50 (KM20L2 colon) | TGI (KM20L2 colon) | GI50 (DMS 273 small cell lung) | TGI (DMS 273 small cell lung) | GI50 (M19-MEL melanoma) | TGI (M19-MEL melanoma) | GI50 (P388/ADR leukemia) | TGI (P388/ADR leukemia) | GI50 (P388 leukemia) | TGI (P388 leukemia) | GI50 (XF 498 CNS) | TGI (XF 498 CNS) | TGI (RXF-631 renal) | TGI (LXFL 529 NSCLC)
1 | O=[Se]([O-])c1ccccc1.O=[Se]([O-])c1ccccc1.[OH3+].[OH3+].[Pt+2] | 4.85 µM | 24.3 µM | 15.3 µM | 37.5 µM | 4.5 µM | 15 µM | 8.88 µM | 35.1 µM | 14.6 µM | 36 µM | 8.43 µM | 44.8 µM | 2.12 µM | 11.8 µM | 1.84 µM | 5.67 µM | 7.72 µM | 26.2 µM |  | 
2 | Nc1ccccc1Nc1ccccc1C(=O)[O-].Nc1ccccc1Nc1ccccc1C(=O)[O-].[Cu+2] |  |  |  |  |  |  |  | > 100 µM |  |  |  |  |  |  |  |  |  | > 100 µM |  | 
3 | Nc1n[nH]c(=O)[nH]1 |  | > 100 µM |  | > 100 µM |  | > 100 µM |  | > 100 µM |  | > 100 µM |  | > 100 µM |  | > 100 µM |  | > 100 µM |  | > 100 µM |  | 
4 | CC(C)CC(N)C(=O)OCN1C(=O)C2C3C=CC(C2C1=O)C1C2C(=O)N(COC(=O)C(N)CC(C)C)C(=O)C2C31 (stereo not drawn) |  | > 100 µM |  | > 100 µM |  |  |  | > 100 µM |  | > 100 µM |  |  |  |  |  |  |  |  | > 100 µM | > 100 µM
5 | COC1OC(=O)[C@H]2O[N+]([O-])=C(C)[C@@H]12 (stereo partly drawn) |  | > 100 µM |  | > 100 µM |  | > 100 µM |  | > 100 µM |  |  |  | > 100 µM |  | > 100 µM |  | > 100 µM |  | > 100 µM |  | 
